# Experimental data: paper PMC11626952, “Preclinical evaluation of radiolabeled tissue factor-targeted peptide for theranostics of hepatocellular carcinoma post percutaneous ethanol injection” (Theranostics, 2024)
# Where a SMILES comes first, the peptide text is derived from it. Side-chain parts run from the residue outwards. The star is where a group is joined. NOTA = O=C(O)CN1CCN(CC(=O)O)CCN(CC(=O)*)CC1; PEG8 = NCCOCCOCCOCCOCCOCCOCCOCCOCCC(=O)O
# Assays:
# [1] = format: physicochemical
# From the text: (§1) instant thin layer chromatography. The stability of Al18F-NOTA-tTF in PBS (C) and FBS (D) via
# (§2) instant thin layer chromatography. The stability of 68Ga-DOTA-tTF in PBS (E) and FBS (F) via
# (§3) instant thin layer chromatography.
# (§4) FBS: fetal bovine serum; PBS: phosphate-buffered saline.
# [2] = format: in vitro ADME, bovine
# From the text: as §1, §2, §3, §4
# [3] = set-up: species or system Kunming mice; settings: mouse, in vivo
# Experimental: increased to 95 °C, and maintained for 15 min. The crude product was purified using a C18 Sep-Pak cartridge and sterilized for subsequent applications. Radiolabeling efficiency was assessed using radio-thin-layer chromatography with citrate solvent (0.1 M, pH 4.0) as the mobile phase.
# Small animal biodistribution and pharmacokinetics study of Al18F-NOTA-tTF A small animal biodistribution experiment was conducted with female Kunming mice (5 weeks). The mice were divided into six groups with 3-4 mice in each group. Al18F-NOTA-tTF (1.2 MBq) was injected into KM mice via the tail vein and a 1% injected dose of Al18F-NOTA-tTF was prepared for reference. At 5 min,15 min, 30 min, 60 min, 90 min and 120 min post-injection, the KM mice were euthanized and organs of interest were collected, wet-weighed. The uptake in various organs and tissues was determined and expressed in terms of the percentage injected dose per gram (%ID/g, mean ± SD) after quantifying the radioactivity of the samples using an […]
# For the pharmacokinetic study, each Kunming mouse was intravenously injected with a 3.7 MBq of Al18F-NOTA-tTF. Small amounts of blood were obtained through the orbital vein of the […]
# weighed and measured for radioactivity by the γ-counter. The results are expressed as the percentage injected dose per gram (%ID/g).
# (§5) Al18F-NOTA-tTF PET/CT imaging in mice bearing Hepa1-6 xenografts
# (§6) Al18F-NOTA-tTF PET/CT imaging of Hepa1-6 tumor-bearing mice were intravenously injected with 100 μL of Al18F-NOTA-tTF (2.96 MBq). In the blocking experiments, unlabeled excess precursors (0.2 mg) were co-injected with Al18F-NOTA-tTF into Hepa1-6 mice (n = 3).
# One hour after Al18F-NOTA-tTF injection, the mice were anesthetized and placed in the prone
# tissue factor (TF) [4] = target: T1, tissue factor (TF) (Mus musculus, UniProt P20352); test: Al18F-NOTA-tTF PET/CT imaging in Hepa1-6 tumor-bearing mice; format: in vivo; settings: for tumor uptake SUVmax, PEI group: n = 8
# T1 construct: Hepa1-6 tumor-bearing mice received an intravenous injection of 100 μL of Al^18F-NOTA-tTF (2.96 MBq); from tissue; host or cells: subcutaneous Hepa1-6 tumours in male C57BL/6 mice
# T1 sequence (P20352 29-294): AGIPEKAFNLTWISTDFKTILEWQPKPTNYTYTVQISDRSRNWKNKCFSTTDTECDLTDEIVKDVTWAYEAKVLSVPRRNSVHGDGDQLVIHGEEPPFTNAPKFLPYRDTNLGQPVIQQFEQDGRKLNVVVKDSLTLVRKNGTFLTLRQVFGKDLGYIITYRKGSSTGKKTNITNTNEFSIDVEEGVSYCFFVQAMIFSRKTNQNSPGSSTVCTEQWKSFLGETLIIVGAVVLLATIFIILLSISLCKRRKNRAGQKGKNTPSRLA
# Experimental: […] Al^18F-NOTA-tTF PET/CT imaging was conducted on days 1 and 6 post-PEI. Hepa1-6 tumor-bearing mice received an intravenous injection of 100 μL of Al^18F-NOTA-tTF (2.96 MBq). Tumor volume and mouse body weight were monitored every 2 to 3 days. Biodistribution studies were performed on days 1 and 6 post-PEI, with mice divided into PEI and NC groups. Al^18F-NOTA-tTF (1.2 MBq) was administered via tail vein injection, and biodistribution results were expressed as the percentage of injected dose per gram (%ID/g).
# Tumor-bearing mice were randomly divided into the HD-PEI treatment (HD-PEI, n = 8), LD-PEI treatment (LD-PEI, n = 8), and negative control (NC, n = 8) groups. Al^18F-NOTA-tTF PET/CT imaging was conducted on days 1, 5, and 12 post-PEI.^ 18F-FDG PET/CT imaging was conducted on days 2, 6, and 13 post-PEI. Hepa1-6 tumor-bearing mice received intravenous injections of 100 μL of Al^18F-NOTA-tTF (2.96 MBq) and^ 18F-FDG (2.96 MBq). Tumor volume and mouse body weight were monitored every 2 days. […]
# increased to 95 °C, and maintained for 15 min. The crude product was purified using a C18 Sep-Pak cartridge and sterilized for subsequent applications. Radiolabeling efficiency was assessed using radio-thin-layer chromatography with citrate solvent (0.1 M, pH 4.0) as the mobile phase. […]
# as §5, §6
# One hour after Al18F-NOTA-tTF injection, the mice were anesthetized and placed in the prone […]
# position on the scanning bed. The PET/CT imaging was acquired with a PET/CT scanner (uBio-EXPLORER, United Imaging, China). PET images were collected for 10 min and reconstructed to get more high-resolution images using an ordered subsets expectation maximization (OSEM) algorithm (4 OSEM iterations, resolution: 1.4 mmHD) with scatter, attenuation, and decay corrections applied. Regions of interest (ROIs) were drawn on the CT images and further mapped on PET. The SUVmax of the tumor and muscle were calculated and referred to as the tumor-to- […]
# PEI treatment and efficacy monitoring
# In this study, we established a model of incomplete ablation of hepatocellular carcinoma using percutaneous ethanol injection (PEI). Once the tumor volume reached approximately 100 mm3, all mice were randomly assigned to treatment, sham treatment, and negative control groups.
# During the PEI procedure, an insulin needle was inserted along the long diameter of the tumor, with needle depth set at1/2 to 2/3 of the tumor diameter. Ethanol was injected at a rate of 25 μL every half minute, and the needle was slowly withdrawn after 5 minutes of injection. Ethanol leakage from the tumor was assessed using CT scans immediately following PEI treatment, defined as day 0. Subsequently, 18F-FDG PET/CT imaging was performed on day 1 post-PEI to evaluate therapeutic efficacy. Tumor volume and mouse body weight were monitored every 2 to 3 days. Tumor volume was calculated using the formula volume = (length × width^2)/2.
# Radioligand therapy study
# Mice were randomly assigned to five groups: PEI (group 1, n = 10), PEI + 0.45 mCi 177Lu-DOTA-tTF (group 2, n = 10), PEI + 0.75 mCi 177Lu-DOTA-tTF (group 3, n = 8), 0.45 mCi 177Lu-DOTA-tTF (group 4, n = 10), and saline (group 5, n = 10). During radiotherapy, one mouse died in […]
# in vivo = test: in vivo; set-up: species or system mice; settings: mouse, iv, 1.2 MBq, total radioactivity, tumor uptake (biodistribution), PEI group
# Experimental: (§7) We randomly divided tumor-bearing mice into the HD-PEI treatment (HD-PEI, n = 8), sham treatment (Sham, n = 8), and negative control groups (NC, n = 6). Al^18F-NOTA-tTF PET/CT imaging was conducted on days 1 and 6 post-PEI. Hepa1-6 tumor-bearing mice received an intravenous injection of 100 μL of Al^18F-NOTA-tTF (2.96 MBq). Tumor volume and mouse body weight were monitored every 2 to 3 days. Biodistribution studies were performed on days 1 and 6 post-PEI, with mice divided into PEI and NC groups. Al^18F-NOTA-tTF (1.2 MBq) was administered via tail vein injection, and biodistribution results were expressed as the percentage of injected dose per gram (%ID/g).
# tissue factor (TF) [5] = target: T1, tissue factor (TF); test: in vivo; set-up: species or system mice; settings: iv, 1.2 MBq, 1 h
# Experimental: as §7
# [6] = HD/LD-PEI models, day 1 post-PEI
# [7] = HD/LD-PEI models, day 5 post-PEI
# [8] = HD/LD-PEI models, day 12 post-PEI
# [9] = day 1 post-PEI, 60 min post-injection, n = 6
compound,measurement,setting,value
CC(C)C[C@H](NC(=O)[C@@H](NC(=O)[C@@H](N)CCCNC(=N)N)[C@@H](C)O)C(=O)N[C@@H](C)C(=O)N[C@@H](Cc1ccccc1)C(=O)N[C@H](C(=O)N[C@@H](CCCNC(=N)N)C(=O)N[C@@H](Cc1ccccc1)C(=O)N[C@@H](CCCCNC(=O)CCOCCOCCOCCOCCOCCOCCOCCOCCNC(=O)CN1CCN(CC(=O)O)CCN(CC(=O)O)CC1)C(=O)O)C(C)C [Al^18F-NOTA-tTF] (H-RTLAFVRFK([PEG8-NOTA])-OH),Vitro stability in PBS,[1],> 95% (3 h)
same,Vitro stability in FBS,[2],> 95% (3 h)
same,in vitro stability in saline or fetal bovine serum,[2],remained stable
same,renal clearance,[3],rapid renal clearance
same,distribution phase half-life (Half-life Fast),[3]; iv,1.192 min
same,elimination phase half-life (Half-life Slow),[3]; iv,12.29 min
same,"tumor uptake SUVmax, NC group","tissue factor (TF) [4]; HD/LD-PEI models, day 1",0.12 ± 0.04
same,"tumor uptake SUVmax, HD-PEI group",tissue factor (TF) [4]; [6],0.42 ± 0.17
same,"tumor uptake SUVmax, LD-PEI group",tissue factor (TF) [4]; [6],0.54 ± 0.23
same,"tumor uptake SUVmax, NC group","tissue factor (TF) [4]; HD/LD-PEI models, day 5",0.16 ± 0.06
same,"tumor uptake SUVmax, HD-PEI group",tissue factor (TF) [4]; [7],0.33 ± 0.09
same,"tumor uptake SUVmax, LD-PEI group",tissue factor (TF) [4]; [7],0.30 ± 0.09
same,"tumor SUVmax, HD-PEI group",tissue factor (TF) [4]; [8],0.25 ± 0.10
same,"tumor SUVmax, LD-PEI group",tissue factor (TF) [4]; [8],0.31 ± 0.08
same,"tumor uptake SUVmax, blocked","tissue factor (TF) [4]; Hepa1-6 tumor-bearing mice, 0.2 mg unlabeled precursor, 60 min post-injection, n = 3",0.07 ± 0.010
same,"tumor uptake SUVmax, non-blocked","tissue factor (TF) [4]; Hepa1-6 tumor-bearing mice, 60 min post-injection, n = 3",0.13 ± 0.005
same,"tumor uptake SUVmax, NC group",tissue factor (TF) [4]; [9],0.12 ± 0.03
same,"tumor uptake SUVmax, Sham group",tissue factor (TF) [4]; [9],0.15 ± 0.04
same,"tumor uptake SUVmax, PEI group","tissue factor (TF) [4]; day 1 post-PEI, 60 min post-injection",0.62 ± 0.14
same,"tumor uptake SUVmax, NC group","tissue factor (TF) [4]; day 6 post-PEI, n = 6",0.11 ± 0.03
same,"tumor uptake SUVmax, Sham group","tissue factor (TF) [4]; day 6 post-PEI, n = 6",0.11 ± 0.01
same,"tumor uptake SUVmax, PEI group",tissue factor (TF) [4]; day 6 post-PEI,0.46 ± 0.23
same,tissue uptake at 1 h,in vivo,0.77 ± 0.25 %ID/g
same,"tumor uptake (biodistribution), PEI group",tissue factor (TF) [5],0.50 ± 0.28 %ID/g
